Laboratory results from patent US10131652B2, “Pyrimidinyloxy benzene derivatives as herbicides” (E. I. DU PONT DE NEMOURS AND COMPANY, priority 2014, dated 2018).
Where two headings read alike, the source gives them in different places.

What was measured:
Format in all cases: in vivo
[1] = system: Italian ryegrass (Lolium multiflorum); test: Test B pre-/postemergence plant response; conditions: 1000 g ai/ha, 0 to 100 scale (0 no effect, 100 complete control)
In short: (§1)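 Ratings reflect visual injury versus untreated controls, from 0 for no effect to 100 for complete control, assessed roughly 10 days after treatment. Formulation: non-phytotoxic solvent mix with surfactant; pre- and postemergence sprays on plants grown in loam soil and sand.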

kochia (Kochia scoparia) = test: Test B pre-/postemergence plant response; conditions: 1000 g ai/ha, 0 to 100 scale (0 no effect, 100 complete control)
In short: as §1

[2] = system: ragweed (common ragweed, Ambrosia elatior); test: Test B pre-/postemergence plant response; conditions: 1000 g ai/ha, 0 to 100 scale (0 no effect, 100 complete control)
In short: as §1

[3] = system: barnyardgrass (Echinochloa crus-galli); test: Test C flooded paddy test plant response; conditions: Echinochloa crus-galli; Flood, 250 g ai/ha; scale of 0 to 100 where 0 is no effect and 100 is complete control; 13 to 15 days; read-out: Barnyardgrass plant response rating
In short: (§2)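 Readout is a visual 0–100 score (100 = complete control) versus controls at 13–15 days. Plants at 2-leaf stage, flooded to 3 cm, treated through paddy water.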

rice (Oryza sativa) = test: Test C flooded paddy test plant response; conditions: Oryza sativa; Flood, 250 g ai/ha; scale of 0 to 100 where 0 is no effect and 100 is complete control; 13 to 15 days; read-out: Rice plant response rating
In short: as §2

[4] = system: small-flower umbrella sedge (Cyperus difformis); test: Test C flooded paddy test plant response; conditions: Cyperus difformis; Flood, 250 g ai/ha; scale of 0 to 100 where 0 is no effect and 100 is complete control; 13 to 15 days; read-out: Sedge, Umbrella plant response rating
In short: as §2

[5] = system: ducksalad (Heteranthera limosa); test: Test C flooded paddy test plant response; conditions: Heteranthera limosa; Flood, 250 g ai/ha; scale of 0 to 100 where 0 is no effect and 100 is complete control; 13 to 15 days; read-out: Ducksalad plant response rating
In short: as §2

[6] = system: Italian ryegrass (Lolium multiflorum); test: Test D pre-/postemergence plant response; conditions: Lolium multiflorum; for pest or weed control at 16 g/ha: 16 g ai/ha; for pest or weed control at 31 g/ha: 31 g ai/ha; for pest or weed control at 62 g/ha: 62 g ai/ha; for pest or weed control at 125 g/ha: 125 g ai/ha
In short: (§3)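 Pre-/post-emergence greenhouse test. Pre: seeded loam+sand, sprayed same day. Post: 1–4 leaf plants (2–18 cm), peat/vermiculite mix. Formulation: non-phytotoxic solvent + surfactant. Scored visually d13–15, 0–100 vs control.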

[7] = system: winter wheat (Triticum aestivum); test: Test D pre-/postemergence plant response; conditions: Triticum aestivum; for plant injury at 16 g/ha: 16 g ai/ha; for plant injury at 31 g/ha: 31 g ai/ha; for plant injury at 62 g/ha: 62 g ai/ha; for plant injury at 125 g/ha: 125 g ai/ha
In short: as §3

[8] = system: velvetleaf (Abutilon theophrasti); test: Test D pre-/postemergence plant response; conditions: Abutilon theophrasti; for pest or weed control at 16 g/ha: 16 g ai/ha; for pest or weed control at 31 g/ha: 31 g ai/ha; for pest or weed control at 62 g/ha: 62 g ai/ha; for pest or weed control at 125 g/ha: 125 g ai/ha
In short: as §3

[9] = system: lambsquarters (Chenopodium album); test: Test D pre-/postemergence plant response; conditions: Chenopodium album; for pest or weed control at 16 g/ha: 16 g ai/ha; for pest or weed control at 31 g/ha: 31 g ai/ha; for pest or weed control at 62 g/ha: 62 g ai/ha; for pest or weed control at 125 g/ha: 125 g ai/ha
In short: as §3

[10] = system: galium (catchweed bedstraw, Galium aparine); test: Test D pre-/postemergence plant response; conditions: Galium; for pest or weed control at 16 g/ha: 16 g ai/ha; for pest or weed control at 31 g/ha: 31 g ai/ha; for pest or weed control at 62 g/ha: 62 g ai/ha; for pest or weed control at 125 g/ha: 125 g ai/ha
In short: as §3

[11] = system: oilseed rape (Brassica napus); test: Test D pre-/postemergence plant response; conditions: Brassica napus; for plant injury at 16 g/ha: 16 g ai/ha; for plant injury at 31 g/ha: 31 g ai/ha; for plant injury at 62 g/ha: 62 g ai/ha; for plant injury at 125 g/ha: 125 g ai/ha
In short: as §3

corn (Zea mays) = test: Test D pre-/postemergence plant response; conditions: Zea mays; for Corn plant response rating (crop injury, 0 = no effect, 100 = complete kill) at 62 g/ha: 62 g ai/ha
In short: as §3

[12] = post-emergence, Postemergence, scale 0 to 100 (0 no effect, 100 complete control), read-out: Ryegrass, Italian plant response rating
[13] = post-emergence, Postemergence, scale 0 to 100, 0 no effect, 100 complete control, read-out: Plant response rating, Ryegrass, Italian
[14] = pre-emergence, Preemergence, scale 0 to 100 (0 no effect, 100 complete control), read-out: Plant response rating, Ryegrass, Italian
[15] = post-emergence, Postemergence, scale 0 to 100 (0 no effect, 100 complete control), read-out: Wheat plant response rating
[16] = post-emergence, Postemergence, scale 0 to 100, 0 no effect, 100 complete control, read-out: Plant response rating, Wheat
[17] = pre-emergence, Preemergence, scale 0 to 100 (0 no effect, 100 complete control), read-out: Plant response rating, Wheat
[18] = post-emergence, Postemergence, scale 0 to 100 (0 no effect, 100 complete control), read-out: Velvetleaf plant response rating
[19] = post-emergence, Postemergence, scale 0 to 100, 0 no effect, 100 complete control, read-out: Plant response rating, Velvetleaf
[20] = pre-emergence, Preemergence, scale 0 to 100 (0 no effect, 100 complete control), read-out: Plant response rating, Velvetleaf
[21] = post-emergence, Postemergence, scale 0 to 100 (0 no effect, 100 complete control), read-out: Lambsquarters plant response rating
[22] = post-emergence, Postemergence, scale 0 to 100, 0 no effect, 100 complete control, read-out: Plant response rating, Lambsquarters
[23] = pre-emergence, Preemergence, scale 0 to 100 (0 no effect, 100 complete control), read-out: Plant response rating, Lambsquarters
[24] = post-emergence, Postemergence, scale 0 to 100 (0 no effect, 100 complete control), read-out: Galium plant response rating
[25] = post-emergence, Postemergence, scale 0 to 100, 0 no effect, 100 complete control, read-out: Plant response rating, Galium
[26] = pre-emergence, Preemergence, scale 0 to 100 (0 no effect, 100 complete control), read-out: Plant response rating, Galium
[27] = post-emergence, Postemergence, scale 0 to 100 (0 no effect, 100 complete control), read-out: Oilseed Rape plant response rating
[28] = post-emergence, Postemergence, scale 0 to 100, 0 no effect, 100 complete control, read-out: Plant response rating, Oilseed Rape
[29] = pre-emergence, Preemergence, scale 0 to 100 (0 no effect, 100 complete control), read-out: Plant response rating, Oilseed Rape

Compound: Fc1cccc(Oc2ncc(Cl)cn2)c1-c1cc(C(F)F)on1 [Compound 55, 5-chloro-2-[2-[5-(difluoromethyl)-3-isoxazolyl]-3-fluorophenoxy]pyrimidine]
- Plant response rating, Ryegrass, Italian ([1]; Postemergence): 100
- Plant response rating, Ryegrass, Italian ([1]; Preemergence): 100
- Plant response rating, Kochia (kochia (Kochia scoparia); Postemergence): 100
- Plant response rating, Kochia (kochia (Kochia scoparia); Preemergence): 100
- Plant response rating, Ragweed ([2]; Postemergence): 100
- Plant response rating, Ragweed ([2]; Preemergence): 100
- pest or weed control at 250 g/ha [3]: 25%
- plant injury at 250 g/ha (rice (Oryza sativa)): 25%
- pest or weed control at 250 g/ha [4]: 90%
- pest or weed control at 250 g/ha [5]: 100%
- pest or weed control at 16 g/ha [6, 12]: 0%
- pest or weed control at 31 g/ha [6, 12]: 5%
- pest or weed control at 62 g/ha [6, 13]: 10%
- pest or weed control at 125 g/ha [6, 13]: 15%
- pest or weed control at 125 g/ha ([6]; pre-emergence, Preemergence, read-out: Plant response rating (scale 0 to 100), Ryegrass, Italian): 95%
- pest or weed control at 16 g/ha [6, 14]: 15%
- pest or weed control at 31 g/ha [6, 14]: 35%
- pest or weed control at 62 g/ha [6, 14]: 85%
- plant injury at 16 g/ha [7, 15]: 5%
- plant injury at 31 g/ha [7, 15]: 25%
- plant injury at 62 g/ha [7, 16]: 30%
- plant injury at 125 g/ha [7, 16]: 35%
- plant injury at 125 g/ha ([7]; pre-emergence, Preemergence, read-out: Plant response rating (scale 0 to 100), Wheat): 60%
- plant injury at 16 g/ha [7, 17]: 0%
- plant injury at 31 g/ha [7, 17]: 0%
- plant injury at 62 g/ha [7, 17]: 25%
- pest or weed control at 16 g/ha [8, 18]: 35%
- pest or weed control at 31 g/ha [8, 18]: 50%
- pest or weed control at 62 g/ha [8, 19]: 75%
- pest or weed control at 125 g/ha [8, 19]: 85%
- pest or weed control at 125 g/ha ([8]; pre-emergence, Preemergence, read-out: Plant response rating (scale 0 to 100), Velvetleaf): 100%
- pest or weed control at 16 g/ha [8, 20]: 90%
- pest or weed control at 31 g/ha [8, 20]: 100%
- pest or weed control at 62 g/ha [8, 20]: 100%
- pest or weed control at 16 g/ha [9, 21]: 75%
- pest or weed control at 31 g/ha [9, 21]: 85%
- pest or weed control at 62 g/ha [9, 22]: 98%
- pest or weed control at 125 g/ha [9, 22]: 98%
- pest or weed control at 125 g/ha ([9]; pre-emergence, Preemergence, read-out: Plant response rating (scale 0 to 100), Lambsquarters): 98%
- pest or weed control at 16 g/ha [9, 23]: 100%
- pest or weed control at 31 g/ha [9, 23]: 100%
- pest or weed control at 62 g/ha [9, 23]: 100%
- pest or weed control at 16 g/ha [10, 24]: 80%
- pest or weed control at 31 g/ha [10, 24]: 90%
- pest or weed control at 62 g/ha [10, 25]: 90%
- pest or weed control at 125 g/ha [10, 25]: 90%
- pest or weed control at 125 g/ha ([10]; pre-emergence, Preemergence, read-out: Plant response rating (scale 0 to 100), Galium): 100%
- pest or weed control at 16 g/ha [10, 26]: 100%
- pest or weed control at 31 g/ha [10, 26]: 100%
- pest or weed control at 62 g/ha [10, 26]: 100%
- plant injury at 16 g/ha [11, 27]: 95%
- plant injury at 31 g/ha [11, 27]: 95%
- plant injury at 62 g/ha [11, 28]: 100%
- plant injury at 125 g/ha [11, 28]: 100%
- plant injury at 125 g/ha ([11]; pre-emergence, Preemergence, read-out: Plant response rating (scale 0 to 100), Oilseed Rape): 100%
- plant injury at 16 g/ha [11, 29]: 100%
- plant injury at 31 g/ha [11, 29]: 100%
- plant injury at 62 g/ha [11, 29]: 100%
- plant injury at 16 g/ha (corn (Zea mays); post-emergence, Postemergence, 16 g ai/ha, scale 0 to 100 (0 no effect, 100 complete control), read-out: Corn plant response rating): 10%
- plant injury at 31 g/ha (corn (Zea mays); post-emergence, Postemergence, 31 g ai/ha, scale 0 to 100 (0 no effect, 100 complete control), read-out: Corn plant response rating): 10%
- Corn plant response rating (crop injury, 0 = no effect, 100 = complete kill) at 62 g/ha (corn (Zea mays); post-emergence, Postemergence, scale 0 to 100, 0 no effect, 100 complete control): 10%
- Corn plant response rating (crop injury, 0 = no effect, 100 = complete kill) at 125 g/ha (corn (Zea mays); post-emergence, Postemergence, 125 g ai/ha, scale 0 to 100, 0 no effect, 100 complete control): 20%
- plant injury at 125 g/ha (corn (Zea mays); pre-emergence, Preemergence, 125 g ai/ha, read-out: Plant response rating (scale 0 to 100), Corn): 80%
- Corn plant response rating (crop injury, 0 = no effect, 100 = complete kill) at 16 g/ha (corn (Zea mays); pre-emergence, Preemergence, 16 g ai/ha, scale 0 to 100 (0 no effect, 100 complete control)): 5%
- Corn plant response rating (crop injury, 0 = no effect, 100 = complete kill) at 31 g/ha (corn (Zea mays); pre-emergence, Preemergence, 31 g ai/ha, scale 0 to 100 (0 no effect, 100 complete control)): 20%
- Corn plant response rating (crop injury, 0 = no effect, 100 = complete kill) at 62 g/ha (corn (Zea mays); pre-emergence, Preemergence, scale 0 to 100 (0 no effect, 100 complete control)): 35%
